Experimental data: US11753395B2 (Kinnate Biopharma Inc., priority 2021, dated 2023)

What was measured:
[1] = target: T1, MET D1228N (Homo sapiens, UniProt P08581, D1228N); assay: MET D1228N Mobility Shift Assay; conditions: biochemical assay IC50; 100 μM ATP, 60 minute kinase reaction
T1 construct: purchased Signalchem M52-12IG
In short: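 Enzyme at 0.313 nM preincubated 30 min at room temperature with 1.5 μM FAM-labelled peptide and 10 mM MgCl2 in HEPES buffer with DTT; reaction started with 100 μM ATP, run 60 min, stopped with EDTA. Substrate/product separated by microfluidic mobility shift; IC50 from inhibition of % conversion.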

[2] = target: T2, Ba/F3-TPR-MET-D1228N cells (Homo sapiens, UniProt P08581, D1228N, cells depend on it); assay: CellTiter-Glo Cell Viability Assay, Ba/F3-TPR-MET-D1228N; type: cell-based; conditions: 72 hours
T2 construct: fused on or other part: P12270 (Nucleoprotein TPR)
In short: (§1)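 Ba/F3 cells carrying TPR-MET or TPR-MET-D1228N, 3000 per well, were exposed for 72 h at 37 °C to 9-point 3-fold compound dilutions at 0.1% DMSO. Viability was read as ATP by CellTiter-Glo 2.0 luminescence, and IC50 values came from curve fitting.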

[3] = target: T3, MET (Homo sapiens, UniProt P08581); assay: MET Mobility Shift Assay; conditions: biochemical assay IC50; 100 μM ATP, 60 minute kinase reaction
T3 construct: purchased Carna Biosciences 08-151
In short: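 Recombinant MET at 0.625 nM was pre-incubated 30 min at room temperature with 1.5 μM FLPeptide30 and 10 mM MgCl2 in HEPES buffer with DTT. The reaction was started with 100 μM ATP, ran 60 min, and was stopped with EDTA. Microfluidic mobility-shift % conversion gave IC50.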

[4] = target: T4, Ba/F3-TPR-MET cells (Homo sapiens, UniProt P08581); assay: CellTiter-Glo Cell Viability Assay, Ba/F3-TPR-MET; type: cell-based; conditions: 72 hours
T4 construct: fused on or other part: P12270 (Nucleoprotein TPR)
In short: as §1

T3 sequence (P08581 25-1390): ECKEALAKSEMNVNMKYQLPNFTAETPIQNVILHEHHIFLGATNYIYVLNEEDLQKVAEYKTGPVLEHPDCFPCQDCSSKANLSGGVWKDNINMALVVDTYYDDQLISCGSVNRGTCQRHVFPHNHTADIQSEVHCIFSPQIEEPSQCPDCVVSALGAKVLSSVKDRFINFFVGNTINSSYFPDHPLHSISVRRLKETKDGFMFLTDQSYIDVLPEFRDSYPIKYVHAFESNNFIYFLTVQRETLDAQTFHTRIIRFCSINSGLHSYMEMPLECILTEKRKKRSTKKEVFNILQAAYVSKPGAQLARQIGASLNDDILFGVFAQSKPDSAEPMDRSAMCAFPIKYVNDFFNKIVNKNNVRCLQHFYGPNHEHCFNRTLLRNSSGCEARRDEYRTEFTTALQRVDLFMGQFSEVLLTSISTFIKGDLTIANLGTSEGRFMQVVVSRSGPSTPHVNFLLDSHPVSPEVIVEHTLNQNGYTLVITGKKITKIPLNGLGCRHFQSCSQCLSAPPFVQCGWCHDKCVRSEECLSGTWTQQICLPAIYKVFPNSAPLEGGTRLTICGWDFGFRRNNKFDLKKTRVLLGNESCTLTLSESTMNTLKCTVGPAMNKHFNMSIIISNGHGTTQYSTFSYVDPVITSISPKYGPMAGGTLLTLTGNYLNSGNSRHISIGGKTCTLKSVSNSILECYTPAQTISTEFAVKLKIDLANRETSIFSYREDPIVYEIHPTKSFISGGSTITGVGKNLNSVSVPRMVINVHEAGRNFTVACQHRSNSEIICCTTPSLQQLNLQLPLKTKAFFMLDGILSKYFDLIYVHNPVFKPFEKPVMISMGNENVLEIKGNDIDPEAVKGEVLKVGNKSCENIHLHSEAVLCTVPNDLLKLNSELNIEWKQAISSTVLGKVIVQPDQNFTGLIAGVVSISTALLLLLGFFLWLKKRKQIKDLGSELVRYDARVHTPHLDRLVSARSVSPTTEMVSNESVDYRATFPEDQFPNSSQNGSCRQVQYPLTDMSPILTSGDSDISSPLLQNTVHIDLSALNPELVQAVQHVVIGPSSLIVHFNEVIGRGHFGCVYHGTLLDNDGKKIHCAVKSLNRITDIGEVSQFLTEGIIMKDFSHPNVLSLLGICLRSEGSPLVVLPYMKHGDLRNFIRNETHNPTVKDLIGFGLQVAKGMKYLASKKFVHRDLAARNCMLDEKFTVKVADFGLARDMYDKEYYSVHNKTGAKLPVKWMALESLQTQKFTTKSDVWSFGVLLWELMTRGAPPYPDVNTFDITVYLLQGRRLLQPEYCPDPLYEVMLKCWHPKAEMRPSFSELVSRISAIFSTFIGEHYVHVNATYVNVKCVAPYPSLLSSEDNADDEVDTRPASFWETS
T1 sequence (P08581 25-1390 D1228N): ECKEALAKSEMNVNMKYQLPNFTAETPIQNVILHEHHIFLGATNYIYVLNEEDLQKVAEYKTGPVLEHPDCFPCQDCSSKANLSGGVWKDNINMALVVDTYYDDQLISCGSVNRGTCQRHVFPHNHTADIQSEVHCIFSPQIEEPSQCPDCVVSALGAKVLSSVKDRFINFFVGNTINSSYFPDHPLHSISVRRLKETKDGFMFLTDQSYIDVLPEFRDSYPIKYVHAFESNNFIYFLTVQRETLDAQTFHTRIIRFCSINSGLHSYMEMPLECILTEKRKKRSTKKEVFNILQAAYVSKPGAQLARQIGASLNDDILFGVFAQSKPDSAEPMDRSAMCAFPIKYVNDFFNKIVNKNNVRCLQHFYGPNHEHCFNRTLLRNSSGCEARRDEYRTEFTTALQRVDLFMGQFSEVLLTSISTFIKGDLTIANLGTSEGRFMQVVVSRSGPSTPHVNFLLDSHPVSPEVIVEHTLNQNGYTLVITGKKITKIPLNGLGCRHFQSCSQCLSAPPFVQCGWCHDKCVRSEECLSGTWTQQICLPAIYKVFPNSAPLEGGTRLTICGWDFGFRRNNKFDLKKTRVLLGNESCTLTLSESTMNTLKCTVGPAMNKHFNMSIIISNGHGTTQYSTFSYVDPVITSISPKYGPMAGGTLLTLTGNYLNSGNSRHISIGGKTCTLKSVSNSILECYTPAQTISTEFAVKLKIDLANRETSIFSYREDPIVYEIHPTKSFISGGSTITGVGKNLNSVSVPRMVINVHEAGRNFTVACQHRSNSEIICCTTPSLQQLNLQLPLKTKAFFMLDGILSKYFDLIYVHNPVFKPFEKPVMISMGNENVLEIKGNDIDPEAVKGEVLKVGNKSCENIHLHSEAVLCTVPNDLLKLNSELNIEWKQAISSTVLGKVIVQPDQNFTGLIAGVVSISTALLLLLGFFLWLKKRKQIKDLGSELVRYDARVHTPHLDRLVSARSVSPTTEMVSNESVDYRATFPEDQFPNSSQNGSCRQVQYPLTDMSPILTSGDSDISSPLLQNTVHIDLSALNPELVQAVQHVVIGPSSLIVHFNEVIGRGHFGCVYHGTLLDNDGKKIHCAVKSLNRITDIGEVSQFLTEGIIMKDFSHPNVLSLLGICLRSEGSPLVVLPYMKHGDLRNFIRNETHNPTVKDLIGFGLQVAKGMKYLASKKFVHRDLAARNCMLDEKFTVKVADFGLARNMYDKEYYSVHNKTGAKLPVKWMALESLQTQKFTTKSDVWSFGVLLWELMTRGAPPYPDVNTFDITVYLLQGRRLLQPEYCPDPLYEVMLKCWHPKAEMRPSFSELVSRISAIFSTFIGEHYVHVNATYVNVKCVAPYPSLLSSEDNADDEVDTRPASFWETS
T4 sequence (P08581 whole entry, change not shown, the tested form may be a part): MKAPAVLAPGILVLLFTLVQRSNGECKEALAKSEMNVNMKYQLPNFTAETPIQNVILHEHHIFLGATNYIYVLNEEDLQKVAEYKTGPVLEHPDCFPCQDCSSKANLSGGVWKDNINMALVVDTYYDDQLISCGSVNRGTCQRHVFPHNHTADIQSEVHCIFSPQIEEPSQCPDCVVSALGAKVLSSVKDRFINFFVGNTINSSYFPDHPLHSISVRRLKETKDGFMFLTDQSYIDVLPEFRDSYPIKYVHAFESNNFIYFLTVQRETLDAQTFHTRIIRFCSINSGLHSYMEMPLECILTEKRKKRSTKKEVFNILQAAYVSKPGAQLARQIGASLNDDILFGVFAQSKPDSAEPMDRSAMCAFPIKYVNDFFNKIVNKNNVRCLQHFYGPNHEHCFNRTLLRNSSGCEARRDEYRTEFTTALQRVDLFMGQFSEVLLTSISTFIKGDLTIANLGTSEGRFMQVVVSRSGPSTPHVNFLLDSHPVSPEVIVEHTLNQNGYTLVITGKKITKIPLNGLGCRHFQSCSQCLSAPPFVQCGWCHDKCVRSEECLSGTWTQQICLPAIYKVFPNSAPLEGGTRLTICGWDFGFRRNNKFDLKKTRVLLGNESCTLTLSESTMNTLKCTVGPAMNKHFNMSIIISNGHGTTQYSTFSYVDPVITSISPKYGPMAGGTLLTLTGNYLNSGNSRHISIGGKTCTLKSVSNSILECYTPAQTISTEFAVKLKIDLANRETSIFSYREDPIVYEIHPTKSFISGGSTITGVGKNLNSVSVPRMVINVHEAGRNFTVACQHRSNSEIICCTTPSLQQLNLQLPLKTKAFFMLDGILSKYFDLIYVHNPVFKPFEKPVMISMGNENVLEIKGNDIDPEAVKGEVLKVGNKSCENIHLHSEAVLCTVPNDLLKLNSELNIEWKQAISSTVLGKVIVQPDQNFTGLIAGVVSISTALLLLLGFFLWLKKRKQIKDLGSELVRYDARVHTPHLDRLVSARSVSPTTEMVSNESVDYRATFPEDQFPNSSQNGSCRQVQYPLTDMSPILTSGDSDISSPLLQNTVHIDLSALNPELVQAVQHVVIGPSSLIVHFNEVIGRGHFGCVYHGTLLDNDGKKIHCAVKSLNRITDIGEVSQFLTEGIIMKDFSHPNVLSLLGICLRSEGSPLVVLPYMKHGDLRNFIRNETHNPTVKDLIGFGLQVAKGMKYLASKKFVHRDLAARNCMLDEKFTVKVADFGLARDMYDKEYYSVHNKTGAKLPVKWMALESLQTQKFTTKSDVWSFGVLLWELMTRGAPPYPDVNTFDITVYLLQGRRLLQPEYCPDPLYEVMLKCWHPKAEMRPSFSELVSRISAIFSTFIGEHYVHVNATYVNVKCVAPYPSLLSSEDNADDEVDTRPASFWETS

Structure (SMILES)	IC50 [1] [nM]	EC50 [2] [nM]	IC50 [3] [nM]	EC50 [4] [nM]
CNCCOc1cc2nccc(Oc3c(F)cc(NC(=O)c4cnccc4OCC(F)F)cc3F)c2cc1OC [Example 60, N-[3,5-difluoro-4-({6-methoxy-7-[2-(methylamino)ethoxy]quinolin-4-yl}oxy)phenyl]-4-(2,2-difluoroethoxy)pyridine-3-carboxamide]	≤ 100	≤ 100	≤ 100	≤ 100
CNCCOc1cc2nccc(Oc3c(F)cc(NC(=O)c4cnccc4OC[C@@H](C)F)cc3F)c2cc1OC [Example 61, N-[3,5-difluoro-4-({6-methoxy-7-[2-(methylamino)ethoxy]quinolin-4-yl}oxy)phenyl]-4-[(2R)-2-fluoropropoxy]pyridine-3-carboxamide]	≤ 100	≤ 100	≤ 100	≤ 100
CNCCOc1cc2nccc(Oc3c(F)cc(NC(=O)c4cnccc4OC[C@H](C)F)cc3F)c2cc1OC [Example 62, N-[3,5-difluoro-4-({6-methoxy-7-[2-(methylamino)ethoxy]quinolin-4-yl}oxy)phenyl]-4-[(2S)-2-fluoropropoxy]pyridine-3-carboxamide]	≤ 100	≤ 100	≤ 100	≤ 100
CNCCOc1cc2nccc(Oc3c(F)cc(NC(=O)c4cnccc4OCCO)cc3F)c2cc1OC [Example 63, N-[3,5-difluoro-4-({6-methoxy-7-[2-(methylamino)ethoxy]quinolin-4-yl}oxy)phenyl]-4-(2-hydroxyethoxy)pyridine-3-carboxamide]	≤ 100	100 to 1000	≤ 100	100 to 1000
CNCCOc1cc2nccc(Oc3c(F)cc(NC(=O)c4cnccc4OC[C@H](C)O)cc3F)c2cc1OC [Example 64, (S)-N-(3,5-difluoro-4-((6-methoxy-7-(2-(methylamino)ethoxy)quinolin-4-yl)oxy)phenyl)-4-(2-hydroxypropoxy)pyridine-3-carboxamide]	≤ 100	100 to 1000	≤ 100	100 to 1000
CNCCOc1cc2nccc(Oc3c(F)cc(NC(=O)c4cnccc4OC[C@@H](C)O)cc3F)c2cc1OC [Example 65, (R)-N-(3,5-difluoro-4-((6-methoxy-7-(2-(methylamino)ethoxy)quinolin-4-yl)oxy)phenyl)-4-(2-hydroxypropoxy)pyridine-3-carboxamide]	≤ 100	≤ 100	≤ 100	100 to 1000
CNCCOc1cc2nccc(Oc3c(F)cc(NC(=O)c4cnccc4OCC(C)(C)O)cc3F)c2cc1OC [Example 66, N-(3,5-difluoro-4-((6-methoxy-7-(2-(methylamino)ethoxy)quinolin-4-yl)oxy)phenyl)-4-(2-hydroxy-2-methylpropoxy)pyridine-3-carboxamide]	≤ 100	100 to 1000	≤ 100	100 to 1000
CNCCOc1cc2nccc(Oc3c(F)cc(NC(=O)c4cnccc4OCCOC)cc3F)c2cc1OC [Example 67, N-[3,5-difluoro-4-({6-methoxy-7-[2-(methylamino)ethoxy]quinolin-4-yl}oxy)phenyl]-4-(2-methoxyethoxy)pyridine-3-carboxamide]	≤ 100	100 to 1000	≤ 100	100 to 1000
CNCCOc1cc2nccc(Oc3c(F)cc(NC(=O)c4cnccc4OC4COC4)cc3F)c2cc1OC [Example 68, N-[3,5-difluoro-4-({6-methoxy-7-[2-(methylamino)ethoxy]quinolin-4-yl}oxy)phenyl]-4-(oxetan-3-yloxy)pyridine-3-carboxamide]	≤ 100	≤ 100	≤ 100	100 to 1000
CCCCOc1ccncc1C(=O)Nc1cc(F)c(Oc2ccnc3cc(OCCNC)c(OC)cc23)c(F)c1 [Example 69, 4-butoxy-N-[3,5-difluoro-4-({6-methoxy-7-[2-(methylamino)ethoxy]quinolin-4-yl}oxy)phenyl]pyridine-3-carboxamide]	≤ 100	≤ 100	≤ 100	≤ 100
CNCCOc1cc2nccc(Oc3c(F)cc(NC(=O)c4cnccc4O[C@@H]4CCOC4)cc3F)c2cc1OC [Example 70, N-[3,5-difluoro-4-({6-methoxy-7-[2-(methylamino)ethoxy]quinolin-4-yl}oxy)phenyl]-4-[(3R)-oxolan-3-yloxy]pyridine-3-carboxamide]	≤ 100	100 to 1000	≤ 100	100 to 1000
CNCCOc1cc2nccc(Oc3c(F)cc(NC(=O)c4cnccc4O[C@H]4CCOC4)cc3F)c2cc1OC [Example 71, N-[3,5-difluoro-4-({6-methoxy-7-[2-(methylamino)ethoxy]quinolin-4-yl}oxy)phenyl]-4-[(3S)-oxolan-3-yloxy]pyridine-3-carboxamide]	≤ 100	100 to 1000	≤ 100	100 to 1000
CNCCOc1cc2nccc(Oc3c(F)cc(NC(=O)c4cnccc4OCC4CC4)cc3F)c2cc1OC [Example 72, 4-(cyclopropylmethoxy)-N-[3,5-difluoro-4-({6-methoxy-7-[2-(methylamino)ethoxy]quinolin-4-yl}oxy)phenyl]pyridine-3-carboxamide]	≤ 100	≤ 100	≤ 100	100 to 1000
C#CCOc1ccncc1C(=O)Nc1cc(F)c(Oc2ccnc3cc(OCCNC)c(OC)cc23)c(F)c1 [Example 73, N-[3,5-difluoro-4-({6-methoxy-7-[2-(methylamino)ethoxy]quinolin-4-yl}oxy)phenyl]-4-(prop-2-yn-1-yloxy)pyridine-3-carboxamide]	≤ 100	≤ 100	≤ 100	≤ 100
COc1cc2c(Oc3c(F)cc(NC(=O)c4cnccc4OC4CC4)cc3F)ccnc2cc1OC1CNC1 [Example 74, N-(4-{[7-(azetidin-3-yloxy)-6-methoxyquinolin-4-yl]oxy}-3,5-difluorophenyl)-4-cyclopropoxypyridine-3-carboxamide]	≤ 100	100 to 1000	≤ 100	100 to 1000
CCNCCOc1cc2nccc(Oc3c(F)cc(NC(=O)c4cnccc4OC4CC4)cc3F)c2cc1OC [Example 75, 4-cyclopropoxy-N-[4-({7-[2-(ethylamino)ethoxy]-6-methoxyquinolin-4-yl}oxy) -3,5-difluorophenyl]pyridine-3-carboxamide]	≤ 100	≤ 100	≤ 100	≤ 100
CNCCOc1cc2nccc(Oc3c(F)cc(NC(=O)c4cncnc4OC4CC4)cc3F)c2cc1OC [Example 76, 4-cyclopropoxy-N-[3,5-difluoro-4-({6-methoxy-7-[2-(methylamino)ethoxy]quinolin-4-yl}oxy)phenyl]pyrimidine-5-carboxamide]	≤ 100	100 to 1000	≤ 100	100 to 1000
CNCCOc1cc2nccc(Oc3c(F)cc(NC(=O)c4ncccc4OC4CC4)cc3F)c2cc1OC [Example 77, 3-cyclopropoxy-N-[3,5-difluoro-4-({6-methoxy-7-[2-(methylamino)ethoxy]quinolin-4-yl}oxy)phenyl]pyridine-2-carboxamide]	≤ 100	≤ 100	≤ 100	≤ 100
CNCCOc1cc2nccc(Oc3c(F)cc(NC(=O)c4cccnc4OC4CC4)cc3F)c2cc1OC [Example 78, 2-cyclopropoxy-N-[3,5-difluoro-4-({6-methoxy-7-[2-(methylamino)ethoxy]quinolin-4-yl}oxy)phenyl]pyridine-3-carboxamide]	≤ 100	100 to 1000	≤ 100	100 to 1000
CNCCOc1ccc2c(Oc3c(F)cc(NC(=O)c4cccnc4OC4CC4)cc3F)ccnc2c1 [Example 79, 2-cyclopropoxy-N-[3,5-difluoro-4-({7-[2-(methylamino)ethoxy]quinolin-4-yl}oxy)phenyl]pyridine-3-carboxamide]	≤ 100	100 to 1000	≤ 100	100 to 1000
CNCCOc1ccc2c(Oc3c(F)cc(NC(=O)c4ncccc4OC4CC4)cc3F)ccnc2c1 [Example 80, 3-cyclopropoxy-N-[3,5-difluoro-4-({7-[2-(methylamino)ethoxy]quinolin-4-yl}oxy)phenyl]pyridine-2-carboxamide]	≤ 100	≤ 100	≤ 100	100 to 1000
CNCCOc1ccc2c(Oc3c(F)cc(NC(=O)c4ccncc4OC4CC4)cc3F)ccnc2c1 [Example 81, 3-cyclopropoxy-N-(3,5-difluoro-4-((7-(2-(methylamino)ethoxy)quinolin-4-yl)oxy)phenyl)isonicotinamide]	≤ 100	≤ 100	≤ 100	≤ 100
CCCOc1ccncc1C(=O)Nc1ccc(Oc2ccnc3cc(OCCNC)c(OC)cc23)c(F)c1F [Example 82, N-[2,3-difluoro-4-({6-methoxy-7-[2-(methylamino)ethoxy]quinolin-4-yl}oxy)phenyl]-4-propoxypyridine-3-carboxamide]	≤ 100	100 to 1000	≤ 100	100 to 1000
